Experimental data reported in patent publication US9150574B2, “Enzyme inhibitor compounds” (Proximagen Limited, priority 2011, dated 2015).
Where a name gives a salt, the structure may show the parent alone.

Molecular target: T1, purified recombinantly expressed human SSAO (Homo sapiens, UniProt Q16853)
T1 construct: made in house
T1 sequence (Q16853 29-763 limits assumed): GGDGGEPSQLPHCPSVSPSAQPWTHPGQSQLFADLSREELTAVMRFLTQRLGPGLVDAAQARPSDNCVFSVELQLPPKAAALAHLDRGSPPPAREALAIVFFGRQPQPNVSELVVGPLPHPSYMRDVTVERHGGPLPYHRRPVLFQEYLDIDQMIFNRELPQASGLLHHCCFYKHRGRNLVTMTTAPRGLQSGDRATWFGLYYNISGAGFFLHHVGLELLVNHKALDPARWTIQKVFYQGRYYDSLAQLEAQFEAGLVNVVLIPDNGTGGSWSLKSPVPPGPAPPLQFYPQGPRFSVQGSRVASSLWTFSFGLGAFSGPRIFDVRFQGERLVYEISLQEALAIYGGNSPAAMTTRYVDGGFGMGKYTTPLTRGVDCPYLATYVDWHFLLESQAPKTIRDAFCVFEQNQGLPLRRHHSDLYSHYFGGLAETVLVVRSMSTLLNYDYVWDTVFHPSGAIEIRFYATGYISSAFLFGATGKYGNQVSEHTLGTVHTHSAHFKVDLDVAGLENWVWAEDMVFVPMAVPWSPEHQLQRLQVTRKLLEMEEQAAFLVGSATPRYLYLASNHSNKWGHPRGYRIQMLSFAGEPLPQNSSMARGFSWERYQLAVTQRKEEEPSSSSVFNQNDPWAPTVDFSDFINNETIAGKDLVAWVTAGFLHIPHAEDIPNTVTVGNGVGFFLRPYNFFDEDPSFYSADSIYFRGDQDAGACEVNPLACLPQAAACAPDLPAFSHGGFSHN
Experiment: SSAO enzyme inhibition assay (benzylamine substrate; hydrogen peroxide/HRP-coupled or 14C aldehyde detection)
Format: biochemical
Conditions: human recombinant SSAO, RT, benzylamine as substrate; read-out: SSAO inhibitory activity IC50
Procedure: All primary assays were performed at RT. with purified recombinantly expressed human SSAO. Enzyme was prepared essentially as described in Ohman et al. (Protein Expression and Purification 46 (2006) 321 331). In addition, secondary- and selectivity assays were performed using SSAO prepared from various tissues or purified rat recombinant SSAO. The enzyme activity was assayed with benzylamine as substrate by measuring either benzaldehyde production, using ^14C-labeled substrate, or by utilizing the production of hydrogen peroxide in a horseradish peroxidase (HRP) coupled reaction. Briefly, test compounds were dissolved in dimethyl sulfoxide (DMSO) to a concentration of 10 mM. Dose-response measurements were assayed by either creating 1:10 serial dilutions in DMSO to produce a 7 point curve or by making 1:3 serial dilutions in DMSO to produce 11 point curves. The top concentrations were adjusted depending on the potency of the compounds and subsequent dilution in reaction buffer yielded a final DMSO concentration ≦2%.
In a horseradish peroxidase (HRP) coupled reaction, hydrogen peroxide oxidation of 10-acetyl-3,7-dihydroxyphenoxazine produced resorufin, which is a highly fluorescent compound (Zhout and Panchuk-Voloshina. Analytical Biochemistry 253 (1997) 169-174; Amplex® Red Hydrogen Peroxide/peroxidase Assay kit, Invitrogen A22188). Enzyme and compounds in 50 mM sodium phosphate, pH 7.4 were set to pre-incubate in flat-bottomed microtiter plates for approximately 15 minutes before initiating the reaction by addition of a mixture of HRP, benzylamine and Amplex reagent. Benzylamine concentration was fixed at a concentration corresponding to the Michaelis constant, determined using standard procedures. Fluorescence intensity was then measured at several time points during 1-2 hours, exciting at 544 nm and reading the emission at 590 nm. For the human SSAO assay final concentrations of the reagents in the assay wells were: SSAO enzyme 1 μg/ml, benzylamine 100 μM, Amplex reagent 20 μM, HRP 0.1 U/mL and varying concentrations of test compound. The inhibition was measured as % decrease of the signal compared to a control without inhibitor (only diluted DMSO). The background signal from a sample containing no SSAO enzyme was subtracted from all data points. Data was fitted to a four parameter logistic model and IC50 values were calculated using the GraphPad Prism 4 or XLfit 4 programs.
SSAO activity was assayed using 14C-labeled benzylamine and analysed by measuring radioactive benzaldehyde. In a white 96-well optiplate (Packard), 20 μL of diluted test compound was pre-incubated at RT. with 20 μL SSAO enzyme for approximately 15 minutes with continuous agitation. All dilutions were made with PBS. The reaction was initiated by adding 20 μL of the benzylamine substrate solution containing [7-14C] Benzylamine hydrochloride (CFA589, GE Healthcare). The plate was incubated for 1 hour as above after which the reaction was stopped by acidification (10 μL 1 M HCl). Then 90 μL Micro Scint-E solution (Perkin-Elmer) was added to each well and the plate was continuously mixed for 15 minutes. Phase separation occurred instantly and activity was read in a Topcount scintillation counter (Perkin-Elmer). In the final reaction well, the human recombinant SSAO concentration was 10 μg/ml. In order to optimize sensitivity, the substrate concentration was decreased as compared to the HRP coupled assay in order to get a higher fraction of radioactive product. In the human SSAO assay, benzylamine concentration was 40 μM (0.2 μCi/mL). Data was analysed as above.

| SMILES | IC50 [µM] |
| --- | --- |
| NCCN1CCC(c2cn(-c3ccc(Cl)cc3)c3cnccc23)CC1 [Example 1, 2,2,2-Trifluoroacetic acid; 2-{4-[1-(4-chlorophenyl)-1H-pyrrolo[2,3-c]pyridin-3-yl]piperidin-1-yl}ethan-1-amine] | < 0.1 |
| NCCCOC(=O)N1CCC(c2cn(-c3ccc(Cl)cc3)c3cnccc23)CC1 [Example 2, 3-Aminopropyl 4-[1-(4-chlorophenyl)-1H-pyrrolo[2,3-c]pyridin-3-yl]piperidine-1-carboxylate] | < 0.1 |
| CN(C)CCCC(=O)N1CCC(c2cn(-c3ccc(Cl)cc3)c3cnccc23)CC1 [Example 3, 1-{4-[1-(4-Chlorophenyl)-1H-pyrrolo[2,3-c]pyridin-3-yl]piperidin-1-yl}-4-(dimethylamino)butan-1-one; 2,2,2-trifluoroacetic acid] | < 0.1 |
| NCCCCC(=O)N1CCC(c2cn(-c3ccc(Cl)cc3)c3cnccc23)CC1 [Example 4, 5-Amino-1-{4-[1-(4-chlorophenyl)-1H-pyrrolo[2,3-c]pyridin-3-yl]piperidin-1-yl}pentan-1-one] | < 0.1 |
| NCCNC(=O)N1CCC(c2cn(-c3ccc(Cl)cc3)c3cnccc23)CC1 [Example 5, N-(2-Aminoethyl)-4-[1-(4-chlorophenyl)-1H-pyrrolo[2,3-c]pyridin-3-yl]piperidine-1-carboxamide] | < 0.1 |
| NCCCNC(=O)N1CCC(c2cn(-c3ccc(Cl)cc3)c3cnccc23)CC1 [Example 6, N-(3-Aminopropyl)-4-[1-(4-chlorophenyl)-1H-pyrrolo[2,3-c]pyridin-3-yl]piperidine-1-carboxamide] | < 0.1 |
| CN(C)CCCNC(=O)N1CCC(c2cn(-c3ccc(Cl)cc3)c3cnccc23)CC1 [Example 7, 4-[1-(4-Chlorophenyl)-1H-pyrrolo[2,3-c]pyridin-3-yl]-N-[3-(dimethylamino)propyl]piperidine-1-carboxamide] | < 0.1 |
| O=C(N1CCNCC1)N1CCC(c2cn(-c3ccc(Cl)cc3)c3cnccc23)CC1 [Example 8, 1-({4-[1-(4-Chlorophenyl)-1H-pyrrolo[2,3-c]pyridin-3-yl]piperidin-1-yl}carbonyl)piperazine] | < 0.1 |
| O=C(N1CCOCC1)N1CCC(c2cn(-c3ccc(Cl)cc3)c3cnccc23)CC1 [Example 9, 4-({4-[1-(4-Chlorophenyl)-1H-pyrrolo[2,3-c]pyridin-3-yl]piperidin-1-yl}carbonyl)morpholine] | 0.1 to 0.5 |
| O=C(N1CCCNCC1)N1CCC(c2cn(-c3ccc(Cl)cc3)c3cnccc23)CC1 [Example 10, 1-({4-[1-(4-Chlorophenyl)-1H-pyrrolo[2,3-c]pyridin-3-yl]piperidin-1-yl}carbonyl)-1,4-diazepane] | < 0.1 |
| CCOC(=O)C1CCN(c2nn(-c3ccc(Cl)cc3)c3cnccc23)CC1 [Example 11, Ethyl 1-[1-(4-chlorophenyl)-1H-pyrazolo[3,4-c]pyridin-3-yl]piperidine-4-carboxylate] | 0.5 to 2.5 |
| CCOC(=O)C1CCN(c2nn(-c3ccc(C)cc3)c3cnccc23)CC1 [Example 12, Ethyl 1-[1-(4-methylphenyl)-1H-pyrazolo[3,4-c]pyridin-3-yl]piperidine-4-carboxylate] | 0.1 to 0.5 |
| O=C(O)C1CCN(c2nn(-c3ccc(Cl)cc3)c3cnccc23)CC1 [Example 13, 1-[1-(4-Chlorophenyl)-1H-pyrazolo[3,4-c]pyridin-3-yl]piperidine-4-carboxylic acid hydrochloride] | 0.1 to 0.5 |
| NCCNC(=O)C1CCN(c2nn(-c3ccc(Cl)cc3)c3cnccc23)CC1 [Example 14, N-(2-Aminoethyl)-1-[1-(4-chlorophenyl)-1H-pyrazolo[3,4-c]pyridin-3-yl]piperidine-4-carboxamide dihydrochloride] | 0.1 to 0.5 |
| O=C(C1CCN(c2nn(-c3ccc(Cl)cc3)c3cnccc23)CC1)N1CCOCC1 [Example 15, 4-({1-[1-(4-Chlorophenyl)-1H-pyrazolo[3,4-c]pyridin-3-yl]piperidin-4-yl}carbonyl) morpholine] | 0.5 to 2.5 |
